“Also recorded” adds a separate entry of the source. Like-named read-outs stand apart in the source and are kept apart here.
What was measured:
[1] = system: E304 endothelial cells (expressing mainly ERα); experiment: DNA synthesis by [3H]-thymidine incorporation in E304 cells; format: cell-based, human
Procedure: E304 cells, expressing mainly ERα, an endothelial cell line derived from a human umbilical vein, were purchased from American Type Culture Collection (ATCC), Rockville, Md., and grown in medium 199 containing 10% FCS, glutamine and antibiotics.
(§1) Assessment of DNA synthesis was performed by [^3H]-thymidine incorporation in these cells. Cells were grown until subconfluence and then treated with various hormones or agents as indicated. Forty-eight hours later, [^3H] thymidine was added for two hours. Cells were then treated with 10% ice-cold trichloroacetic (TCA) for 5 min and washed twice with 5% TCA and then with cold ethanol. The cellular layer was dissolved in 0.3 ml of 0.3M NaOH, samples were taken and [^3H] thymidine incorporation into DNA was determined. The concentration of hormone to produce half-maximal induction (EC50) or inhibition (IC50) was calculated from the dose response curves.
(§2) In the second phase the cytotoxicity of isoflavone-daunomycin conjugates was tested after 48 h of incubation in normal cells [VSMC, E304, non transformed enterocytes (TEC)] and malignant cells [human adrenocortical carcinoma (NCI-H295R), human colon cancer cells (colo320) and c-K-ras transformed rat enterocytes (R1)] using uptake of [^3H]-thymidine as a proliferation marker.

[2] = system: human adrenocortical carcinoma cells (NCI-H295R); experiment: cells; format: cell-based; settings: for IC50: read-out: concentration required for 50% inhibition of DNA synthesis (IC50), NCI-H295R
Procedure: These cells were purchased from ATTC (Rockville, Md.) and grown in Dulbecco's modified Eagle's medium containing antibiotics.
as §1, §2

[3] = system: human colon cancer cells (colo320); experiment: DNA synthesis by [3H]-thymidine incorporation in colo320 cells; format: cell-based
Procedure: These cells were purchased from ATTC (Rockville, Md.) and grown in RPMI medium containing 20 mM HEPES and 10% fetal calf serum.
as §1, §2

[4] = system: human vascular smooth muscle cells (VSMC), expressing mainly ERβ; experiment: cells; format: cell-based
Procedure: Human umbilical artery smooth muscle cells, expressing mainly ERβ, were prepared as previously described with minor modifications (Somjen D. et al. 1998 Hypertension 32:39-45). In brief, umbilical cords were collected shortly after delivery. The umbilical arteries were isolated by dissection, cleaned of blood and adventitia and then cut into tiny slices (1-3 mm). The segments were kept in culture in medium 199 containing 20% FCS, glutamine and antibiotics. […] Cells were fed twice a week and, upon confluence, trypsinized and transferred to 24-well dishes. Cells were used only at passages 1-3 when expression of smooth muscle actin was clearly demonstrable.
as §1, §2

[5] = system: nontransformed rat enterocytes (IEC); experiment: cells; format: cell-based; settings: read-out: concentration required for 50% inhibition of DNA synthesis (IC50), IEC
Procedure: (§3) Cell lines were obtained from Prof. N. Arber, Ichilov Hospital, Tel-Aviv, Israel and grown as described previously (Arber N et al. 1996 Oncogene 12:1903-1908).
as §1, §2

[6] = system: c-K-ras transformed rat enterocytes (R1); experiment: cells; format: cell-based; settings: read-out: concentration required for 50% inhibition of DNA synthesis (IC50), R1
Procedure: as §3, §1, §2

Recombinant ERα protein = biological target: T1, Recombinant ERα protein (Homo sapiens, UniProt P03372); experiment: Estrogen receptor-binding assay, [3H]-17β-estradiol displacement, ERα; settings: result in words
T1 sequence (P03372 1-595): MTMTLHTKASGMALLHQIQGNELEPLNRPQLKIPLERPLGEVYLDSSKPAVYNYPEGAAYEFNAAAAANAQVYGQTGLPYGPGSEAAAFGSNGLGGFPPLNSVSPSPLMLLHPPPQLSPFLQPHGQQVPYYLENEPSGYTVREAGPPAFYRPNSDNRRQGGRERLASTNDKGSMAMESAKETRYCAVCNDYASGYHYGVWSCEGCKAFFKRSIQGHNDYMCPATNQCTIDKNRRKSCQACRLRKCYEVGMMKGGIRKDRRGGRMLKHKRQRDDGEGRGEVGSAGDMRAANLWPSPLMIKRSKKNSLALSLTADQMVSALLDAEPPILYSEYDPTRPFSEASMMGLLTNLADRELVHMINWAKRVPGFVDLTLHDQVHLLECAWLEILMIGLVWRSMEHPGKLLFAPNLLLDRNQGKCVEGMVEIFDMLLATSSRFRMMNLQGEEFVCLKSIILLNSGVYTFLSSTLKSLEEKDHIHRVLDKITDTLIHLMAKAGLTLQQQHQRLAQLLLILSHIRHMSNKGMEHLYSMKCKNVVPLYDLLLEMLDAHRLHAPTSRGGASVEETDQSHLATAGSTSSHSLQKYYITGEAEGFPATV
Procedure: (§4) Biotinylated anti-ER antibody (α or β, prepared as described in Strasburger C J & Kohen F 1990 Methods Enzymol. 184:481-496), 100 ng/well in 100 μl of binding buffer, was added to each well, and the reaction mixtures were incubated with shaking for 2 h and 30 min at room temperature. The reaction mixtures were then decanted, and each well was washed once with binding buffer. Dilute sodium hydroxide (0.1 N, 300 μl) was added to each well. After shaking for 20 min, an aliquot (200 μl) was removed from each well and added to a vial containing scintillation fluid. The vials were then counted for radioactivity in a beta scintillation counter.

Recombinant ERβ protein = Recombinant ERβ protein (Homo sapiens, UniProt Q92731); experiment: Estrogen receptor-binding assay, [3H]-17β-estradiol displacement, ERβ; settings: for binding activity to ERβ: result in words
Procedure: as §4

[7] = system: creatine kinase (CK) specific activity, an estrogen responsive enzyme; experiment: Stimulation of the specific activity of creatine kinase (CK) in rat tissues in vivo; settings: for CK specific activity (experimental/control), aorta: Ao; for CK specific activity (experimental/control), aorta / CK specific activity (experimental/control), diaphysis / CK specific activity (experimental/control), epiphysis / CK specific activity (experimental/control), left ventricle of the heart / CK specific activity (experimental/control), pituitary / CK specific activity (experimental/control), uterus: immature female rats, i.p., 24 h, mean ± SD, n = 5, control = 1.0; for CK specific activity (experimental/control), diaphysis: Dia; for CK specific activity (experimental/control), epiphysis: Epi; for CK specific activity (experimental/control), left ventricle of the heart: LV; for CK specific activity (experimental/control), pituitary: Pi; for CK specific activity (experimental/control), uterus: Ut; for effect on CK specific activity in rat tissues (in words): uterus, pituitary, epiphysis, diaphysis, aorta, left ventricle
Procedure: The ability of the isoflavone derivatives to bind estrogen receptor and/or to modulate estrogen receptor response may be examined by any assay known in the art. A convenient assay described herein as a non-limiting example utilizes the specific activity of creatine kinase (CK), an estrogen responsive enzyme, as a parameter for the estrogen-like activity of the isoflavone derivatives of the present invention.
The rats were killed by decapitation 24 h after i.p. injection. The various organs were removed and stored at −20° C. until processed for CK activity as previously described (Somjen D. et al. 1998 Hypertension 32:39-45).

[8] = 48 h incubation, read-out: concentration required for 50% inhibition of DNA synthesis (IC50), E304
[9] = 48 h incubation, [3H]-thymidine
[10] = 48 h incubation, [3H]-thymidine, read-out: concentration required for 50% inhibition of DNA synthesis (IC50), VSMC

Recombinant ERβ protein, sequence (Q92731 whole entry, species assumed): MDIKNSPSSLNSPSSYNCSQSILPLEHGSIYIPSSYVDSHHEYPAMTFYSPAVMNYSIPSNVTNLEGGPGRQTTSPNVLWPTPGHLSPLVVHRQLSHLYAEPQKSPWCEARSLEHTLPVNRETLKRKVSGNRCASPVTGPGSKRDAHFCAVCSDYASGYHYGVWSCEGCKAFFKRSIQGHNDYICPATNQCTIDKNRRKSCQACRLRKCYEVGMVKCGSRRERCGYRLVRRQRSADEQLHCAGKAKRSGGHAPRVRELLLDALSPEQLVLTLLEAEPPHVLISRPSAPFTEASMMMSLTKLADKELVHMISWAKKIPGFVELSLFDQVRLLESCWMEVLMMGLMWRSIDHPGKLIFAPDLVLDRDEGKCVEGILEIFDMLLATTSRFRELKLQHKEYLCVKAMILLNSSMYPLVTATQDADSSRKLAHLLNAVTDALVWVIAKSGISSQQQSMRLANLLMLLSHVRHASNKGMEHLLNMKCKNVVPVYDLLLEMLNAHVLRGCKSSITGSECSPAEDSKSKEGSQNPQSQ

| Compound | IC50 [1, 8] | binding activity to ERα (Recombinant ERα protein) | binding activity to ERβ (Recombinant ERβ protein) | CK specific activity (experimental/control), aorta [7] | CK specific activity (experimental/control), diaphysis [7] | CK specific activity (experimental/control), epiphysis [7] | CK specific activity (experimental/control), left ventricle of the heart [7] | CK specific activity (experimental/control), pituitary [7] | CK specific activity (experimental/control), uterus [7] | effect on CK specific activity in rat tissues (in words) [7] | also measured |
| --- | --- | --- | --- | --- | --- | --- | --- | --- | --- | --- | --- |
| 6-carboxymethyl biochanin A daunomycin conjugate [Cbio-daunomycin] | 5 nM | – | – | – | – | – | – | – | – | – | IC50 [2, 9]: 60 nM; IC50 ([3]; 48 h incubation, [3H]-thymidine, read-out: concentration required for 50% inhibition of DNA synthesis (IC50), Colo320): 40 nM |
| 6-carboxymethyl genistein daunomycin conjugate [Cgen-daunomycin] | 60 nM | – | – | – | – | – | – | – | – | – | IC50 ([4]; 48 h incubation, [3H]-thymidine, listed as 6-carboxymethyl genistein daunomycin conjugate, read-out: concentration required for 50% inhibition of DNA synthesis (IC50), VSMC): 20 nM; IC50 [4, 10]: 12 nM; IC50 [5]: 2000 nM; IC50 [6]: 70 nM; IC50 [2]: 16 nM |
| 7-(O)-carboxymethyl daidzein-daunomycin conjugate [Cdaid-daunomycin] | – | – | – | – | – | – | – | – | – | – | IC50 [4, 10]: 22 nM; IC50 ([2]; 48 h incubation, [3H]-thymidine, listed as 7-(O)-carboxymethyl daidzein-daunomycin conjugate): 7 nM; IC50 [2, 9]: 6 nM |
| COc1ccc(-c2coc3cc(O)c(CC(=O)O)c(O)c3c2=O)cc1 [6-carboxymethyl biochanin A] | – | did not show any significant binding activity | did not show any significant binding activity | 1.63 ± 0.11 | 1.51 ± 0.05 | 1.61 ± 0.17 | 1.91 ± 0.16 | 1.54 ± 0.05 | 0.89 ± 0.12 | increased the CK specific activity in all the rat tissues with the exception of the uterus; also recorded: caused an increase in CK activity in rat tissues | stimulatory response of E2 to CK specific activity on combination with E2 (in words) ([7]; rats treated with E2 plus compound): inhibited in all the tissues |
| O=C(O)Cc1c(O)cc2occ(-c3ccc(O)cc3)c(=O)c2c1O [6-carboxymethyl genistein] | – | – | – | – | – | – | – | – | – | caused an increase in CK activity in rat tissues | IC50 (Recombinant ERβ protein; recombinant ERβ, [3H]-17β-estradiol 3 nM, read-out: inhibition of binding of [3H]-estradiol to ERβ, relative binding affinity values (IC50)): 200 nM; EC50 ([4]; Homo sapiens, VSMC, [3H]-thymidine incorporation, read-out: induced proliferation, EC50 in VSMC): 3 nM; EC50 ([2]; Homo sapiens, NCI-H295R, [3H]-thymidine incorporation, read-out: induced proliferation, EC50 in NCI-H295R): 2 nM |
| O=C(O)COc1ccc2c(=O)c(-c3ccc(O)cc3)coc2c1 [7-(O)-carboxymethyl daidzein] | – | did not show any significant binding activity | did not show any significant binding activity | – | – | – | – | – | – | – | – |
| COc1ccc(-c2coc3cc(O)cc(O)c3c2=O)cc1 [Biochanin A, biochanin A] | – | did not show any significant binding activity | did not show any significant binding activity | 2 ± 0.18 | 1.9 ± 0.23 | 2.38 ± 0.18 | 1.42 ± 0.04 | 1.58 ± 0.05 | 1.42 ± 0.13 | stimulated the CK specific activity in all the rat tissues | – |
| O=c1c(-c2ccc(O)cc2)coc2cc(O)ccc12 [Daidzein, reference compound] | – | did not show any significant binding activity | did not show any significant binding activity | – | – | – | – | – | – | – | – |
| COc1cccc2c1C(=O)c1c(O)c3c(c(O)c1C2=O)C[C@@](O)(C(C)=O)C[C@@H]3O[C@H]1C[C@H](N)[C@H](O)[C@H](C)O1 [Daunomycin, daunomycin, reference compound] | 300 nM | – | – | – | – | – | – | – | – | – | IC50 ([4]; Homo sapiens, VSMC, read-out: concentration required for 50% inhibition of DNA synthesis (IC50), VSMC, 48 h incubation, [3H]-thymidine): 700 nM; IC50 ([4]; read-out: concentration required for 50% inhibition of DNA synthesis (IC50), VSMC, 48 h incubation, [3H]-thymidine): 650 nM; IC50 ([5]; Rattus norvegicus): 550 nM; IC50 ([6]; Rattus norvegicus): 850 nM; IC50 ([1]; read-out: concentration required for 50% inhibition of DNA synthesis (IC50), E304, 48 h incubation): 800 nM; IC50 ([3]; Homo sapiens, COLO 320, read-out: concentration required for 50% inhibition of DNA synthesis (IC50), Colo320): 300 nM |
| C[C@]12CC[C@@H]3c4ccc(O)cc4CC[C@H]3[C@@H]1CC[C@@H]2O [Estradiol, 17β-estradiol] | – | – | – | 2.43 ± 0.06 | 2.75 ± 0.23 | 1.85 ± 0.16 | 1.53 ± 0.13 | 1.45 ± 0.05 | 1.49 ± 0.13 | stimulated the CK specific activity in all the rat tissues | – |
